Measured values from the supplement of paper PMC11451515.

Test system: SEM cells
Assay: cell viability relative to DMSO control; higher = less cytotoxic
Settings: 48 h
Summary of the method: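 In 1536-well plates, 5 μl of leukemia cells were seeded per well: 500 cells/well for NOMO1 or SEM and 1000 cells/well for P12-Ichikawa. Each line had first been adapted for at least four passages in each medium. Library compounds in DMSO were pin-dosed at 11 threefold concentrations between 47 μM and 0.79 nM, and CellTiter-Glo One luminescence was read after 48 h at 37°C. Viability is a per-plate percentage relative to DMSO wells, with cell-free wells as background.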

[1] = HPLM + 10% dialyzed FBS, 0.000781 µM
[2] = HPLM + 10% dialyzed FBS, 0.00234 µM
[3] = HPLM + 10% dialyzed FBS, 0.00702 µM
[4] = HPLM + 10% dialyzed FBS, 0.0211 µM
[5] = HPLM + 10% dialyzed FBS, 0.0632 µM
[6] = HPLM + 10% dialyzed FBS, 0.19 µM
[7] = HPLM + 10% dialyzed FBS, 0.569 µM
[8] = HPLM + 10% dialyzed FBS, 1.71 µM
[9] = HPLM + 10% dialyzed FBS, 5.12 µM
[10] = HPLM + 10% dialyzed FBS, 15.4 µM
[11] = HPLM + 10% dialyzed FBS, 46.1 µM
[12] = RPMI 5 mM glucose + 10% FBS, 0.000781 µM
[13] = RPMI 5 mM glucose + 10% FBS, 0.00234 µM
[14] = RPMI 5 mM glucose + 10% FBS, 0.00702 µM
[15] = RPMI 5 mM glucose + 10% FBS, 0.0211 µM
[16] = RPMI 5 mM glucose + 10% FBS, 0.0632 µM
[17] = RPMI 5 mM glucose + 10% FBS, 0.19 µM
[18] = RPMI 5 mM glucose + 10% FBS, 0.569 µM
[19] = RPMI 5 mM glucose + 10% FBS, 1.71 µM
[20] = RPMI 5 mM glucose + 10% FBS, 5.12 µM
[21] = RPMI 5 mM glucose + 10% FBS, 15.4 µM
[22] = RPMI 5 mM glucose + 10% FBS, 46.1 µM
[23] = RPMI 5 mM glucose + 10% dialyzed FBS, 0.000781 µM
[24] = RPMI 5 mM glucose + 10% dialyzed FBS, 0.00234 µM
[25] = RPMI 5 mM glucose + 10% dialyzed FBS, 0.00702 µM
[26] = RPMI 5 mM glucose + 10% dialyzed FBS, 0.0211 µM
[27] = RPMI 5 mM glucose + 10% dialyzed FBS, 0.0632 µM
[28] = RPMI 5 mM glucose + 10% dialyzed FBS, 0.19 µM
[29] = RPMI 5 mM glucose + 10% dialyzed FBS, 0.569 µM
[30] = RPMI 5 mM glucose + 10% dialyzed FBS, 1.71 µM
[31] = RPMI 5 mM glucose + 10% dialyzed FBS, 5.12 µM
[32] = RPMI 5 mM glucose + 10% dialyzed FBS, 15.4 µM
[33] = RPMI 5 mM glucose + 10% dialyzed FBS, 46.1 µM

## CN(C)CC(C)(C)CNc1nn2c(-c3ccccc3)nnc2cc1C1CCC1
[1]
  cell viability: 79.6%
[2]
  cell viability: 98.8%
[3]
  cell viability: 100%
[4]
  cell viability: 98%
[5]
  cell viability: 92.1%
[6]
  cell viability: 114%
[7]
  cell viability: 5.79%
[8]
  cell viability: 101%
[9]
  cell viability: 92.3%
[10]
  cell viability: 82.7%
[11]
  cell viability: 62.4%
[12]
  cell viability: 92.9%
[13]
  cell viability: 116%
[14]
  cell viability: 104%
[15]
  cell viability: 127%
[16]
  cell viability: 110%
[17]
  cell viability: 125%
[18]
  cell viability: 6.41%
[19]
  cell viability: 106%
[20]
  cell viability: 103%
[21]
  cell viability: 81.1%
[22]
  cell viability: 73.1%
[23]
  cell viability: 68.1%
[24]
  cell viability: 123%
[25]
  cell viability: 101%
[26]
  cell viability: 113%
[27]
  cell viability: 105%
[28]
  cell viability: 110%
[29]
  cell viability: 5.36%
[30]
  cell viability: 102%
[31]
  cell viability: 106%
[32]
  cell viability: 71.8%
[33]
  cell viability: 77.8%

## O=P(O)(O)C(O)(Cn1ccnc1)P(=O)(O)O
[1]
  cell viability: 73.9%
[2]
  cell viability: 94%
[3]
  cell viability: 19.2%
[4]
  cell viability: 101%
[5]
  cell viability: 106%
[6]
  cell viability: 101%
[7]
  cell viability: 107%
[8]
  cell viability: 106%
[9]
  cell viability: 104%
[10]
  cell viability: 109%
[11]
  cell viability: 99.1%
[12]
  cell viability: 95.8%
[13]
  cell viability: 102%
[14]
  cell viability: 10.2%
[15]
  cell viability: 110%
[16]
  cell viability: 120%
[17]
  cell viability: 116%
[18]
  cell viability: 123%
[19]
  cell viability: 110%
[20]
  cell viability: 123%
[21]
  cell viability: 120%
[22]
  cell viability: 114%
[23]
  cell viability: 100%
[24]
  cell viability: 89.7%
[25]
  cell viability: 22.5%
[26]
  cell viability: 92.7%
[27]
  cell viability: 114%
[28]
  cell viability: 104%
[29]
  cell viability: 102%
[30]
  cell viability: 117%
[31]
  cell viability: 120%
[32]
  cell viability: 116%
[33]
  cell viability: 121%

## Nc1ncnc2c1ncn2[C@@H]1O[C@H](CO)C[C@H]1O
[1]
  cell viability: 95.8%
[2]
  cell viability: 98%
[3]
  cell viability: 111%
[4]
  cell viability: 106%
[5]
  cell viability: 111%
[6]
  cell viability: 101%
[7]
  cell viability: 103%
[8]
  cell viability: 97.4%
[9]
  cell viability: 79.7%
[10]
  cell viability: 59.4%
[11]
  cell viability: 41.2%
[12]
  cell viability: 95%
[13]
  cell viability: 96%
[14]
  cell viability: 99.6%
[15]
  cell viability: 98.7%
[16]
  cell viability: 104%
[17]
  cell viability: 93.2%
[18]
  cell viability: 95.4%
[19]
  cell viability: 93.6%
[20]
  cell viability: 97.8%
[21]
  cell viability: 73%
[22]
  cell viability: 67.7%
[23]
  cell viability: 86.7%
[24]
  cell viability: 93.4%
[25]
  cell viability: 87.9%
[26]
  cell viability: 99.7%
[27]
  cell viability: 96.1%
[28]
  cell viability: 91.7%
[29]
  cell viability: 95.6%
[30]
  cell viability: 89.6%
[31]
  cell viability: 91.1%
[32]
  cell viability: 65%
[33]
  cell viability: 41.7%

## CNCC[C@H](Oc1cccc2ccccc12)c1cccs1
[1]
  cell viability: 121%
[2]
  cell viability: 128%
[3]
  cell viability: 110%
[4]
  cell viability: 122%
[5]
  cell viability: 121%
[6]
  cell viability: 130%
[7]
  cell viability: 111%
[8]
  cell viability: 99.4%
[9]
  cell viability: 110%
[10]
  cell viability: 84.2%
[11]
  cell viability: 46.4%
[12]
  cell viability: 124%
[13]
  cell viability: 117%
[14]
  cell viability: 119%
[15]
  cell viability: 116%
[16]
  cell viability: 110%
[17]
  cell viability: 136%
[18]
  cell viability: 111%
[19]
  cell viability: 107%
[20]
  cell viability: 86%
[21]
  cell viability: 96.2%
[22]
  cell viability: 24%
